Laboratory results: article PMC4072041 (Nuclear medicine and biology, 2014)

Assays:
CRF1 vs. CRF2 receptors = conditions: stated in method, no reference given; cited from earlier work
CRF1 receptor = conditions: earlier CRF1 ligand; cited from earlier work
[125I]ovine-CRF = molecular target: T1, [125I]ovine-CRF (Ovis aries, UniProt P01142, 125I-labelled CRF); assay: radioligand binding
T1 chain: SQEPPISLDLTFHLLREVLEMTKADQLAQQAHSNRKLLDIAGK

Molecule: ovine-CRF
- selective for CRF1 vs. CRF2 (CRF1 vs. CRF2 receptors): > 100 fold

Molecule: CCC(COC)n1nnc2c(Nc3ccc(OC)cc3C)nc(C)cc21 (racemic) [[^3H]SN003, (+/−)-N-[2-methyl-4-methoxyphenyl]-1(1-(methoxymethyl)propyl)-6-methyl-1H-1,2,3-triazolo[4,5-c]pyridin-4-amine]
- ratio of CRF1 receptor-specific to non-specific binding (CRF1 receptor): about 1

B1: CRF1 receptor (protein)
chain: SLQDQRCENLSLTSNVSGLQCNASVDLIGTCWPRSPAGQLVVRPCPAFFYGVRYNTTNNGYRECLANGSWAARVNYSECQEILNEEKKSKVHYHVAVIINYLGHCISLVALLVAFVLFLRLRSIRCLRNIIHWNLISAFILRNATWFVVQLTVSPEVHQSNVAWCRLVTAAYNYFHVTNFFWMFGEGCYLHTAIVLTYSTDRLRKWMFVCIGWGVPFPIIVAWAIGKLHYDNEKCWFGKRPGVYTDYIYQGPMILVLLINFIFLFNIVRILMTKLRASTTSETIQYRKAVKATLVLLPLLGITYMLFFVNPGEDEVSRVVFIYFNSFLESFQGFFVSVFYCFLNSEVRSAIRKRWRRWQDKHSIRARVARAMSIPTSPTRVSFHSIKQSTAV
- Kd ([125I]ovine-CRF): 0.45 nM
